US4472304A, “(Amido)N-substituted bleomycins, salts thereof and process for preparation thereof” (Nippon Kayaku Kabushiki Kaisha, priority 1981, dated 1984)

Experiments:
[1] = tested on: Mycobacterium smegmatis ATCC 607; test: Antimicrobial activity against Mycobacterium smegmatis ATCC 607 (agar plate-cylinder); format: cell-based; conditions: standard bleomycin A2 (copper-free) assumed 1,000 mcg potency/mg
Procedure: (§1) 2. ANT[…] MYC[…] ATCC 607 AND BACILLUS SUBTILIS
(§2) The antimicrobial activity was tested against the captioned test organisms by the method of agar plate-cylinder. The activity was recorded on the assumption that the activity of standard sample of bleomycin A2 (copper-free form) is 1,000 mcg poteney/mg.

Bacillus subtilis = test: Antimicrobial activity against Bacillus subtilis (agar plate-cylinder); format: cell-based; conditions: standard bleomycin A2 (copper-free) assumed 1,000 mcg potency/mg
Procedure: as §1, §2

| SMILES | Antimicrobial potency of Cu-free compound against Mycobacterium smegmatis ATCC 607 [1] | Antimicrobial potency of Cu-free compound against Bacillus subtilis (Bacillus subtilis) |
| --- | --- | --- |
| Cc1c(N)nc(C(CC(N)=O)NCC(N)C(=O)NC(C)C)nc1C(=O)NC(C(=O)NC(C)C(O)C(C)C(=O)NC(C(=O)NCCc1nc(-c2nc(C(=O)NCCc3c[nH]cn3)cs2)cs1)C(C)O)C(OC1OC(CO)C(O)C(O)C1OC1OC(CO)C(O)C(OC(N)=O)C1O)c1cnc[nH]1 (stereo not drawn) [Compound 3, 2-(4'-Imidazolyl)ethylamino-(amido)N--[isopropyl]-BLM] | 2778 mcg potency/mg | 593 mcg potency/mg |
| Cc1c(N)nc(C(CC(N)=O)NCC(N)C(=O)NCc2ccccc2)nc1C(=O)NC(C(=O)NC(C)C(O)C(C)C(=O)NC(C(=O)NCCc1nc(-c2nc(C(=O)NCCc3c[nH]cn3)cs2)cs1)C(C)O)C(OC1OC(CO)C(O)C(O)C1OC1OC(CO)C(O)C(OC(N)=O)C1O)c1cnc[nH]1 (stereo not drawn) [Compound 4, 2-(4'-Imidazolyl)ethylamino-(amido)N--[benzyl]-BLM] | 6595 mcg potency/mg | 579 mcg potency/mg |
| Cc1c(N)nc(C(CC(N)=O)NCC(N)C(=O)NCCCNC(C)c2ccccc2)nc1C(=O)NC(C(=O)NC(C)C(O)C(C)C(=O)NC(C(=O)NCCc1nc(-c2nc(C(=O)NCCc3c[nH]cn3)cs2)cs1)C(C)O)C(OC1OC(CO)C(O)C(O)C1OC1OC(CO)C(O)C(OC(N)=O)C1O)c1cnc[nH]1 [Compound 5, 2-(4'-Imidazolyl)ethylamino-(amido)N--[3-((S)-1'-phenylethyl)-aminopropyl]-BLM] | 9846 mcg potency/mg | 3772 mcg potency/mg |
| Cc1c(N)nc(C(CC(N)=O)NCC(N)C(=O)NCCN)nc1C(=O)NC(C(=O)NC(C)C(O)C(C)C(=O)NC(C(=O)NCCc1nc(-c2nc(C(=O)NCCc3c[nH]cn3)cs2)cs1)C(C)O)C(OC1OC(CO)C(O)C(O)C1OC1OC(CO)C(O)C(OC(N)=O)C1O)c1cnc[nH]1 (stereo not drawn) [Compound 6, 2-(4'-Imidazolyl)ethylamino-(amido)N--[2-aminoethyl]-BLM] | 2396 mcg potency/mg | 4453 mcg potency/mg |
| Cc1c(N)nc(C(CC(N)=O)NCC(N)C(=O)NC(C)C)nc1C(=O)NC(C(=O)NC(C)C(O)C(C)C(=O)NC(C(=O)NCCc1nc(-c2nc(C(=O)NCCCCNC(=N)N)cs2)cs1)C(C)O)C(OC1OC(CO)C(O)C(O)C1OC1OC(CO)C(O)C(OC(N)=O)C1O)c1cnc[nH]1 (stereo not drawn) [Compound 7, 4-Guanidinobutylamino-(amido)N--[isopropyl]-BLM] | 6425 mcg potency/mg | 1950 mcg potency/mg |
| Cc1c(N)nc(C(CC(N)=O)NCC(N)C(=O)NCC(F)(F)F)nc1C(=O)NC(C(=O)NC(C)C(O)C(C)C(=O)NC(C(=O)NCCc1nc(-c2nc(C(=O)NCCCCNC(=N)N)cs2)cs1)C(C)O)C(OC1OC(CO)C(O)C(O)C1OC1OC(CO)C(O)C(OC(N)=O)C1O)c1cnc[nH]1 (stereo not drawn) [Compound 9, 4-Guanidinobutylamino-(amido)N--[2',2',2'-trifluoroethyl]-BLM] | 3990 mcg potency/mg | 730 mcg potency/mg |
| CCCCCCCCNC(=O)C(N)CNC(CC(N)=O)c1nc(N)c(C)c(C(=O)NC(C(=O)NC(C)C(O)C(C)C(=O)NC(C(=O)NCCc2nc(-c3nc(C(=O)NCCCCNC(=N)N)cs3)cs2)C(C)O)C(OC2OC(CO)C(O)C(O)C2OC2OC(CO)C(O)C(OC(N)=O)C2O)c2cnc[nH]2)n1 (stereo not drawn) [Compound 10, 4-Guanidinobutylamino-(amido)N--[octyl]-BLM] | 33700 mcg potency/mg | 1500 mcg potency/mg |
| Cc1c(N)nc(C(CC(N)=O)NCC(N)C(=O)NCCCNC(C)c2ccccc2)nc1C(=O)NC(C(=O)NC(C)C(O)C(C)C(=O)NC(C(=O)NCCc1nc(-c2nc(C(=O)NCCCCNC(=N)N)cs2)cs1)C(C)O)C(OC1OC(CO)C(O)C(O)C1OC1OC(CO)C(O)C(OC(N)=O)C1O)c1cnc[nH]1 [Compound 11, 4-Guanidinobutylamino-(amido)N--[3-((S)-1'-phenylethyl)amino-propyl]-BLM] | 15729 mcg potency/mg | 7036 mcg potency/mg |
| CCCCN(CCCC)CCCNC(=O)C(N)CNC(CC(N)=O)c1nc(N)c(C)c(C(=O)NC(C(=O)NC(C)C(O)C(C)C(=O)NC(C(=O)NCCc2nc(-c3nc(C(=O)NCCCCNC(=N)N)cs3)cs2)C(C)O)C(OC2OC(CO)C(O)C(O)C2OC2OC(CO)C(O)C(OC(N)=O)C2O)c2cnc[nH]2)n1 (stereo not drawn) [Compound 12] | 16438 mcg potency/mg | 4384 mcg potency/mg |
| CCCCCCCCCCCCNC(=O)C(N)CNC(CC(N)=O)c1nc(N)c(C)c(C(=O)NC(C(=O)NC(C)C(O)C(C)C(=O)NC(C(=O)NCCc2nc(-c3nc(C(=O)NCCCCNC(=N)N)cs3)cs2)C(C)O)C(OC2OC(CO)C(O)C(O)C2OC2OC(CO)C(O)C(OC(N)=O)C2O)c2cnc[nH]2)n1 (stereo not drawn) [Compound 13, 4-Guanidinobutylamino-(amido)N--[lauryl]-BLM] | 7650 mcg potency/mg | 660 mcg potency/mg |
| Cc1c(N)nc(C(CC(N)=O)NCC(N)C(=O)NCc2ccccc2)nc1C(=O)NC(C(=O)NC(C)C(O)C(C)C(=O)NC(C(=O)NCCc1nc(-c2nc(C(=O)NCCCCNC(=N)N)cs2)cs1)C(C)O)C(OC1OC(CO)C(O)C(O)C1OC1OC(CO)C(O)C(OC(N)=O)C1O)c1cnc[nH]1 (stereo not drawn) [Compound 14, 4-Guanidinobutylamino-(amido)N--[benzyl]-BLM] | 28140 mcg potency/mg | 1650 mcg potency/mg |
| Cc1c(N)nc(C(CC(N)=O)NCC(N)C(=O)NC(c2ccccc2)c2ccccc2)nc1C(=O)NC(C(=O)NC(C)C(O)C(C)C(=O)NC(C(=O)NCCc1nc(-c2nc(C(=O)NCCCCNC(=N)N)cs2)cs1)C(C)O)C(OC1OC(CO)C(O)C(O)C1OC1OC(CO)C(O)C(OC(N)=O)C1O)c1cnc[nH]1 (stereo not drawn) [Compound 15, 4-Guanidinobutylamino-(amido)N--[diphenylmethyl]-BLM] | 42320 mcg potency/mg | 980 mcg potency/mg |
| Cc1c(N)nc(C(CC(N)=O)NCC(N)C(=O)NC(Cc2ccccc2)c2ccccc2)nc1C(=O)NC(C(=O)NC(C)C(O)C(C)C(=O)NC(C(=O)NCCc1nc(-c2nc(C(=O)NCCCCNC(=N)N)cs2)cs1)C(C)O)C(OC1OC(CO)C(O)C(O)C1OC1OC(CO)C(O)C(OC(N)=O)C1O)c1cnc[nH]1 (stereo not drawn) [Compound 16, 4-Guanidinobutylamino-(amido)N--[1',2'-diphenylethyl]-BLM] | 24480 mcg potency/mg | 520 mcg potency/mg |
| Cc1c(N)nc(C(CC(N)=O)NCC(N)C(=O)Nc2ccc3ccccc3c2)nc1C(=O)NC(C(=O)NC(C)C(O)C(C)C(=O)NC(C(=O)NCCc1nc(-c2nc(C(=O)NCCCCNC(=N)N)cs2)cs1)C(C)O)C(OC1OC(CO)C(O)C(O)C1OC1OC(CO)C(O)C(OC(N)=O)C1O)c1cnc[nH]1 (stereo not drawn) [Compound 17, 4-Guanidinobutylamino-(amido)N--[β-naphthyl]-BLM] | 33650 mcg potency/mg | 1295 mcg potency/mg |
| Cc1c(N)nc(C(CC(N)=O)NCC(N)C(=O)NCc2ccco2)nc1C(=O)NC(C(=O)NC(C)C(O)C(C)C(=O)NC(C(=O)NCCc1nc(-c2nc(C(=O)NCCCCNC(=N)N)cs2)cs1)C(C)O)C(OC1OC(CO)C(O)C(O)C1OC1OC(CO)C(O)C(OC(N)=O)C1O)c1cnc[nH]1 (stereo not drawn) [Compound 18, 4-Guanidinobutylamino-(amido)N--[2-furylmethyl]-BLM] | 19150 mcg potency/mg | 1285 mcg potency/mg |
| Cc1c(N)nc(C(CC(N)=O)NCC(N)C(=O)NCc2cccnc2)nc1C(=O)NC(C(=O)NC(C)C(O)C(C)C(=O)NC(C(=O)NCCc1nc(-c2nc(C(=O)NCCCCNC(=N)N)cs2)cs1)C(C)O)C(OC1OC(CO)C(O)C(O)C1OC1OC(CO)C(O)C(OC(N)=O)C1O)c1cnc[nH]1 (stereo not drawn) [Compound 19, 4-Guanidinobutylamino-(amido)N--[3-pyridylmethyl]-BLM] | 5160 mcg potency/mg | 1010 mcg potency/mg |
| Cc1c(N)nc(C(CC(N)=O)NCC(N)C(=O)NCc2nccs2)nc1C(=O)NC(C(=O)NC(C)C(O)C(C)C(=O)NC(C(=O)NCCc1nc(-c2nc(C(=O)NCCCCNC(=N)N)cs2)cs1)C(C)O)C(OC1OC(CO)C(O)C(O)C1OC1OC(CO)C(O)C(OC(N)=O)C1O)c1cnc[nH]1 (stereo not drawn) [Compound 20, 4-Guanidinobutylamino-(amido)N--[2-thiazolylmethyl]-BLM] | 4870 mcg potency/mg | 900 mcg potency/mg |
| Cc1c(N)nc(C(CC(N)=O)NCC(N)C(=O)NCc2ccccc2)nc1C(=O)NC(C(=O)NC(C)C(O)C(C)C(=O)NC(C(=O)NCCc1nc(-c2nc(C(=O)NCCCNC(C)c3ccccc3)cs2)cs1)C(C)O)C(OC1OC(CO)C(O)C(O)C1OC1OC(CO)C(O)C(OC(N)=O)C1O)c1cnc[nH]1 [Compound 23, 3-((S)-1'-phenylethyl)aminopropylamino-(amido)N--[benzyl]-BLM] | 38348 mcg potency/mg | 1380 mcg potency/mg |
